This is an account of results in patent US20070060605A1, “Compositions and methods for inhibiting platelet activation and thrombosis” (priority 2001, published 2007).

What all share (format): cell-based, human
One assay deals with platelets. In words: Agonist-induced platelet granule secretion / activation (P-selectin expression by flow cytometry; ADP/ATP release). The note with it: for Inhibition of PMA-induced platelet responses: even at millimolar concentrations. Here is the method: In order to monitor ATP release, a cocktail of 100 μM SFLLR (synthesized using solid phase Fmoc chemistry on an Applied Biosystems model 430A peptide synthesizer) and 3 mg/ml of luciferin/luciferase (Sigma, St. Louis, Mo.) in a volume of 10 μl is added to 20 μl of PRP. Samples are immediately analyzed for luminescence. Activated platelets supply the ATP necessary for luminescence of the luciferin/luciferase assay. Assays can be performed at high throughput through use of a microtiter plate system, e.g., 384-well plates and a Multidrop 384 (Thermo Labsystems, Helsinki), read with a high density imaging system, e.g., the Tundra system (Imaging Research, St. Catherine's, Ontario).
(§1) In order to assay platelet activation by cell surface marker expression, fresh PRP is isolated from donors who have not ingested aspirin for two weeks prior to donation. PRP (40 μl) is incubated with known or suspected inhibitor in DMSO or DMSO alone for 15 min. The sample is then incubated with the indicated agonist (e.g., SFLLR) for 10 min. Following incubation of the sample with the indicated agonist, 10 μl of reaction mixture is transferred to 5 μl of phycoerythrin (PE)-conjugated AC 1.2 anti-P-selectin antibody (for assessment of P-selectin surface expression) or fluorescein isothiocyanate (FITC)-conjugated PAC-1 antibody (for assessment of GPIIbIIIa activation). PBS (500 μl) is added to the sample after a 20 min incubation and the platelets are analyzed immediately by flow cytometry. Flow cytometry can be performed using, for example, a Becton-Dickinson FACSCalibur flow cytometer or its equivalent. Fluorescent channels are set at logarithmic gain. Ten thousand particles are acquired for each sample. A 530/30 band pass filter is used for FL-1 fluorescence. A 585/42 band pass filter is used for FL-2 fluorescence. FITC is measured in the FL-1 channel and PE is measured in the FL-2 channel. Data are analyzed using, for example, CellQuest software on a Macintosh PowerPC, or their equivalents.
Compounds were tested for the ability to inhibit agonist-induced ADP/ATP release from platelet dense granules using a luciferin-luciferase reporter system. In this assay, compounds were incubated with platelet-rich plasma (PRP) for 30 min. A cocktail of the platelet agonist and luciferin-luciferase was then added to the wells. Plates were immediately analyzed using a Tundra high density luminescence imager. […] As a control, compounds were also screened in a platelet-free assay for the ability to inhibit luciferin-luciferase upon exposure to ATP.
Each of the compounds was tested for inhibition of platelet activation in response to the agonists SFLLR (a thrombin mimic), U46619 (a thromboxane A2 mimic), ADP and the phorbol ester PMA.
(§2) Compounds were also tested by flow cytometry for the inhibition of SFLLR-induced GPIIbIIIa activation and P-selectin expression. In these experiments, freshly obtained PRP was prepared from healthy volunteers who had not ingested aspirin for two weeks prior to donation. Forty μl of PRP was incubated with inhibitor in DMSO or DMSO alone for 15 min. The sample was then incubated with the indicated agonist for 10 min. Following incubation of the sample with the indicated agonist, 10 μl of reaction mixture was transferred to 5 μl of PE-conjugated AC1.2 anti-P-selectin antibody (for assessment of P-selectin surface expression) or FITC-conjugated PAC-1 antibody (for assessment of GPIIbIIIa activation). PBS (500 μl) was added to the sample after a 20 min incubation and the platelets were analyzed immediately by flow cytometry. Flow cytometry was performed using a Becton-Dickinson FACSCalibur flow cytometer. Fluorescent channels were set at logarithmic gain. Ten thousand particles were acquired for each sample. A 530/30 band pass filter was used for FL-1 fluorescence. A 585/42 band pass filter was used for FL-2 fluorescence. FITC was measured in the FL-1 channel and PE was measured in the FL-2 channel.

In a further assay the test system is platelet GPIIbIIIa. Put plainly: SFLLR-induced GPIIbIIIa activation (PAC-1 antibody, flow cytometry). The note with it: Homo sapiens, Platelet; agonist SFLLR; read-out: IC50s of inhibition of platelet GPIIbIIIa activation induced with SFLLR. Here is the method: as §1
as §2, with “channel. Data were analyzed using CellQuest software on a MacIntosh PowerPC.” for “channel.”

Assay [1] relates to PGE1-induced cAMP levels in platelets. Put plainly: Augmentation of PGE1-induced cAMP levels in platelets. The conditions noted are these: no single concentration. Here is the method: One frequent target of anti-platelet agents is phosphodiesterase III (PDE III). […] The assay is performed as described by Liao et al., 1998, Eur J Pharmacol 349,107-114, incorporated herein by reference. Briefly, aliquots of PRP are exposed to increasing concentrations of the agent for 20 minutes. The PRP is then challenged with 1 μM PGE1 for 2 min The reaction is stopped by adding 10 mM EDTA, followed immediately by boiling for 2 min. The mixture is cooled to 4° C. and the precipitated protein is pelleted. cAMP content in the supernatant is quantitated using an enzyme immunoassay kit (Pharmacia-Amersham, N.J.) according to the instructions of the manufacturer.
In order to assess whether the compounds useful according to the invention might act through inhibition phosphodiesterase III, each was tested for its effect on PGE1-induced cAMP increase. Determination of platelet cAMP levels was performed as described by Liao et al., 1998, supra. Aliquots of PRP were exposed to increasing concentrations of the indicated compounds for 20 min. PRP was then challenged with 1 μM PGE1 for 2 min. The reaction was stopped with the addition of 10 mM EDTA followed immediately by boiling for 2 min. The mixture was then cooled to 4° C. and the precipitated protein was pelleted. Cyclic AMP content in the supernatant was then quantified using an enzyme immunoassay kit (Pharmacia-Amersham, N.J.) according to the instructions of the manufacturer.

Where [2] appears, read: Homo sapiens, Platelet, agonist ADP, read-out: IC50s of inhibition of platelet granule secretion induced with ADP.
Setting [3] is: Homo sapiens, Platelet, agonist PMA, read-out: IC50s of inhibition of platelet granule secretion induced with PMA.
[4] abbreviates: Homo sapiens, Platelet, agonist U-46619, read-out: IC50s of inhibition of platelet granule secretion induced with U-46619.
Where [5] appears, read: Homo sapiens, Platelet, agonist SFLLR, read-out: IC50s of inhibition of platelet granule secretion induced with SFLLR.
[6] abbreviates: Homo sapiens, Platelet, agonists SFLLR and U-46619, read-out: IC50 SFLLR- and U-46619-induced activation.
Where [7] appears, read: Homo sapiens, Platelet, agonists U-46619, ADP, PMA, read-out: IC50 U-46619-, ADP-, and PMA-induced platelet responses.
The mark [8] stands for this setting: Homo sapiens, Platelet, agonist SFLLRN/SFLLR, human platelets, read-out: IC50 SFLLRN-induced P-selectin expression, flow cytometry.

Read-outs that look alike come from different tables or passages of the source.

For `CCOC(=O)C1(C2(O)C(=O)c3ccccc3C2=O)CCCC1=O` (centres unmarked) [1-(2-hydroxy-1,3-dioxo-indan-2-yl)-2-oxo-cyclopentanecarboxylic acid ethyl ester], the IC50 is 50 µM with platelets (setting [2]); more than 1000 µM in the assay on platelets (setting [3]); 30 µM with platelets (setting [4]); 50 µM with platelets (setting [5]); 50 µM in the assay on platelet GPIIbIIIa. The “Inhibition of PMA-induced platelet responses” value in the assay on platelets (agonist PMA) is “no activity”.
As to `Cn1cc(/C=N/NC(N)=O)c2ccccc21` [2-[(1-methyl-1H-indol-3-yl)methylene]-hydrazinecarboxamide], the IC50 is 1000 µM with platelets (setting [2]); 1000 µM in the assay on platelets (setting [3]); 20 µM with platelets (setting [4]); 20 to 50 µM in the assay on platelets (setting [6]); 50 µM in the assay on platelets (setting [5]). For the same compound, the “Effect on ADP- and PMA-induced activation” value in the assay with platelets (agonists ADP and PMA) is on record as “little effect”. Further, the “Effect on PGE1-stimulated cAMP levels in platelets” value in assay [1] is “augmented”.
With `O=C1NC(=O)N(c2cccc3ccccc23)C(=O)/C1=C\c1ccco1` [5-(2-furanylmethylene)-1-1-naphthalenyl)-2,4,6(1H, 3H, 5H)-pyrimidinetrione], the IC50 is 60 µM in the assay with platelets (Homo sapiens, Platelet, read-out: IC50s of inhibition of platelet granule secretion induced with ADP); 150 µM in the assay with platelets (Homo sapiens, Platelet, read-out: IC50s of inhibition of platelet granule secretion induced with PMA); 100 µM in the assay on platelets (Homo sapiens, Platelet, read-out: IC50s of inhibition of platelet granule secretion induced with SFLLR); 50 µM in the assay with platelets (Homo sapiens, Platelet, read-out: IC50s of inhibition of platelet granule secretion induced with U-46619); 100 µM in the assay on platelet GPIIbIIIa.
On to `O=C(CN1CCOCC1)N1c2ccccc2Sc2ccc(C(F)(F)F)cc21` [10H-phenothiazine, 10-(4-morpholinylacetyl)-2-(trifluoromethyl)], for which the IC50 with platelets (setting [2]) amounted to 150 µM; in the assay with platelets (setting [3]) it was 85 µM; in the assay with platelets (setting [4]), 100 µM; in the assay on platelets (setting [5]), 80 µM; in the assay with platelet GPIIbIIIa it was 50 µM.
For `CCCCCn1c2c(c(=N)c3ccccc31)CCC2` [III], in the assay with platelets (setting [7]), the IC50 is approximately 500 µM.
Same read-out and setting: the value for `CCCCn1c2c(c(=N)c3ccccc31)CCC2` [II] was approximately 500 µM.
In the case of `CCCn1c2c(c(=N)c3ccccc31)CCC2` [I], the IC50 in the assay with platelets (setting [7]) was approximately 500 µM.
Take `CCCn1c2c(c(=N)c3ccccc31)CCC2` [JF081204{3C}]: the IC50 with platelets (setting [8]) was 2 to 150 µM.
On to `CCCCn1c2c(c(=N)c3ccccc31)CCC2` [JF081204{4C}], for which the IC50 in the assay on platelets (setting [8]) is 2 to 150 µM.
Turning to `CC1CC(=O)NN=C1c1ccc(Cl)cc1` (centres unmarked) [Structure 9, 6-(4-chlorophenyl)-5-methyl-4,5-dihydro-5 methyl-3(2H)-pyridazinone], in the assay on platelets (ADP vs SFLLR and U46619), the “ADP-induced responses inhibited less effectively than SFLLR and U46619 responses” value was “approximately 20 fold”. Moreover, the IC50 in the assay on platelets (setting [2]) was determined as 8 µM; in the assay with platelets (setting [6]), 0.3 µM. Also, the “Inhibition of PMA-induced platelet activation” value in the assay on platelets (agonist PMA) is “did not inhibit”.
On to `Nc1cc2cccnc2c2ncccc12` [[1,10]Phenanthroline-5-ylamine], for which the IC50 with platelets (setting [2]) was 50 µM; with platelets (setting [3]) it was more than 1000 µM; in the assay with platelets (setting [4]) it was 30 µM; in the assay on platelets (setting [5]), 50 µM; in the assay with platelets (agonist ADP, read-out: IC50s of inhibition of platelet granule secretion induced with ADP), 100 µM; in the assay with platelet GPIIbIIIa, 50 µM. Also, the “Inhibition of PMA-induced platelet responses” value in the assay on platelets (agonist PMA) is “did not inhibit”. Further, the “Effect on PGE1-stimulated cAMP levels in platelets” value in assay [1] is listed as “failed to augment”.
As for `CC(=O)OC(CC(=O)c1ccc(Cl)cc1Cl)C(Cl)(Cl)Cl` (centres unmarked) [acetic acid 3-(2,4-dichlorophenyl)-3-oxo-1-trichloromethyl-propyl ester], the IC50 with platelets (setting [2]) is 200 µM; with platelets (setting [3]), 200 µM; in the assay with platelets (setting [4]), 20 µM; in the assay on platelets (Homo sapiens, Platelet, agonists ADP and PMA, read-out: IC50 ADP- and PMA-induced activation), approximately 200 µM; in the assay with platelets (setting [6]), 20 to 50 µM; in the assay with platelets (setting [5]) it was 50 µM. For the same compound, the IC50 in the assay with platelet GPIIbIIIa stood at 30 µM.
